Legend:
[1] = system: NANOS3-Tdtomato reporter EPSCs; experiment: Differentiation to PGCLCs from NANOS3-Tdtomato reporter EPSCs (FACS); assay type: cell-based, human; details: 5.0 ng/ml supplemented in hEPSCM
Experimental: For human PGCLCs, the PGC differentiation potential of two hEPSC lines are tested with the sequential induction method. Human pre-mesoderm (pre-ME) was first induced in pre-ME media (Advanced RPMI 1640 Medium, 1% B27 supplement, 1×NEAA and 1× glutamine penicillin-streptomycin supplemented with 100 ng/ml Activin A (SCI), 3 μM CHIR99021 and 10 μM of ROCKi Y-27632) for 12 hours. Pre-ME were trypsinized into single cells and seeded into Corning Costar Ultra-Low attachment multi well 96-well plates (Corning, Cat. No. 7007) 4,000-5,000 cells per well in the […] PGCLC medium which was used for porcine PGCLC induction. To improve the cell aggregation, in all PGCLC induction experiments, 0.25% (v/v) poly-vinyl alcohol (Sigma, Cat. No. 341584) are added in the basal medium.

pEPSCs^Emb = experiment: Requirement of individual culture components for pEPSCs (RT-qPCR, AP+ colony formation); assay type: cell-based, porcine
Experimental: Porcine and human EPSC cultures were routinely maintained on STO feeders. STO feeder plates were prepared 3-4 days before passaging by thawing and plating the mitomycin C inactivated STO cells on 0.1% gelatinised plates at the density of ˜1.1×10^4 cells/cm^2. Porcine/human EPSC cells were maintained on STO feeder layers and enzymatically passaged every 3-5 days by a brief PBS wash followed by treatment for 3-5 minutes with 0.25% trypsin/EDTA (Gibco, Cat. No. 25500-054). The cells were dissociated and centrifuged (300 g×5 minutes) in M10 medium. M10: knockout DMEM (Gibco, Cat. No. 10829-018), 10% FBS (Gibco, Cat. No. 10270), 1× Glutamine Penicillin-Streptomycin (Thermo Fisher Scientific, Cat. No. 11140050) and 1×NEAA (Thermo Fisher Scientific, Cat. No. 10378-016). After removing supernatant, the porcine/human EPSCs were re-suspended and seeded in pEPSCM/hEPSCM supplemented with 5 μM ROCK inhibitor Y-27632 (Tocris, Cat. No. 1254). 5% FBS (Gibco, Cat. No. 10270) and 10% KnockOut Serum Replacement (KSR) (Gibco, Cat. No. 10828028) were added in pEPSCM and hEPSCM respectively to improve cells survive. 12-24 hours later, medium was switched to pEPSCM/hEPSCM only. Both pEPSCM and hEPSCM are N2B27 based media. N2B27 basal media (500 ml) was prepared by inclusion of the following components: 482.5 ml DMEM/F-12 (Gibco, Cat. No. 21331-020), 2.5 ml N2 supplement (Thermo Fisher Scientific, Cat. No. 17502048), 5 ml B27 supplement (Thermo Fisher Scientific, Cat. No. 17504044), 5 ml 1× Glutamine Penicillin-Streptomycin (Thermo Fisher Scientific, Cat. No. 11140-050), and 5 ml 1×NEAA (Thermo Fisher Scientific, Cat. No. 10378-016), 0.1 mM 2-mercaptoethanol (Sigma, Cat. No. M6250). pEPSCM (500 ml) was generated by adding the following small molecules and cytokines into 500 ml N2B27 basal media: 0.2 μM CHIR99021(GSK3i, TOCRIS, Cat. No. 4423), 1 μM WH-4-023 (SRC inhibitor, TOCRIS, Cat. No. 5413), 2.5 μM XAV939 (Sigma, Cat. No. X3004) or 2.5 μM IWR-1 (TOCRIS, Cat. No. 3532), […] Vitamin C (Sigma, Cat. No. 49752-100G), 10 ng/ml LIF (Stem Cell Institute, University of Cambridge. SCI) and 20 ng/ml ACTIVIN (SCI). hEPSCM (500 ml) was generated by adding the following components into 500 ml N2B27 basal media: 1.0 μM CHIR99021(GSK3 inhibitor, TOCRIS, Cat. No. 4423), 0.5 μM A-419259 (SRC inhibitor, TOCRIS, Cat. No. 3914), 2.5 μM XAV939 (Sigma, Cat. No. X3004), […] Vitamin C (Sigma, Cat. No. 49752-100G), 10 ng/ml LIF (SCI). Although both targeting SRC family kinases (SFKs), WH-4-023 and A419259 were preferred for porcine and human EPSCs, respectively. […] The concentrations of CHIR99021 for porcine and human EPSC cultures are 0.2 μM and 1.0 μM, respectively. […] 0.25 μM SB 590885 (BRAF inhibitor, R&D, Cat. No. 2650) and 2.0 μM SP600125 ([…], TOCRIS, Cat. No. 1496) were included to improve porcine and human EPSC cultures, but they were not essential for the routine maintenance of porcine and human EPSCs. All cell cultures in this paper were performed under conditions of 37° C. and 5% CO2 unless stated otherwise.
Total RNA was isolated using an RNeasy Mini Kit (Qiagen, Cat. No. 74106) for cultured cells or RNeasy Micro Kit (Qiagen, Cat. No. 74034) for sorted NANOS3-mCherry^+ cells. RNA was subsequently quantified and treated with gDNA WipeOut to remove genomic DNA. Complementary DNA (cDNA) was prepared using a QuantiTect Reverse Transcription Kit (Qiagen, Cat. No. 205311). RT-qPCR primers or TaqMan Gene Expression Assays (Life Technologies) are listed in Supplementary Table 10 and 11. ABsolute Blue qPCR ROX Mix (ABgene, Cat. No. AB4138B) were used for probe based qPCR assays and SYBR Green ROX qPCR Mastermix (Qiagen, Cat. No. 330523) were used for primer based qPCR assays. All qPCR reactions were performed on ABI 7900 HT Sequence Detection System (Life Technologies). Information on all primers and probes used for qPCR analysis are provided in Supplementary Table 10 and 11. Gene expression was determined relative to GAPDH using the […]. […]

Question: How did the “NANOS3-tdTomato+ PGCLCs generated” value [1] turn out when “ACTIVIN A: Human Recombinant ACTIVIN A cytokine” was run?
Answer: more and substantially increased

Question: And the “cell survival and pluripotency factor expression” value (pEPSCs^Emb; removing ACTIVIN A from pEPSCM)?
Answer: massive cell loss and down-regulation of pluripotency factors

Question: How did the “pEPSC survival as measured by colony formation in serial passaging” value (pEPSCs^Emb; 0.1 μM added to pEPSCM) turn out when `O=C(NOC[C@H](O)CO)c1ccc(F)c(F)c1Nc1ccc(I)cc1F` [PD0325901] was run?
Answer: decreased pEPSC survival

— patent US20220145264A1, “CULTURE MEDIUM FOR MAMMALIAN EXPANDED POTENTIAL STEM CELLS, COMPOSITION, AND METHODS THEREOF” (THE UNIVERSITY OF HONG KONG, priority 2019, published 2022)
